Values quoted from earlier work, collected in publication PMC5673907 (Clinical and Translational Science, 2017).

Tested on: HDL inflammatory index
Conditions: simvastatin 40 mg daily

CCC(C)(C)C(=O)O[C@H]1C[C@@H](C)C=C2C=C[C@H](C)[C@H](CC[C@@H]3C[C@@H](O)CC(=O)O3)[C@H]21 [simvastatin]
Mean HII after statin: above 1.0 UR
Drop in HII (6 weeks, statin-naive CHD/equivalent risk): 28%
